Test results as given in PMC10957775, “Integrated chemical characterization, metabolite profiling, and pharmacokinetics analysis of Zhijun Tangshen Decoction by UPLC-Q/TOF-MS” (Frontiers in Pharmacology, 2024).
Read-outs that look alike come from different tables or passages of the source.

Columns and labels:
[1] = Multi-compound pharmacokinetics of ZJTSD in rat serum, semi-quantitative UPLC-Q/TOF-MS (peak area ratio versus time, non-compartmental); settings: for pharmacokinetic behavior compared with other prototype compounds and metabolites (in words): non-compartmental analysis; for AUC (in words): peak area ratio versus time
Method: Thirty male Sprague–Dawley rats (200 ± 20 g) were purchased from the Nanjing Qinglongshan Experimental Animal Center (Nanjing, China). […] All rats were divided randomly into two groups: ZJTSD-dosed group (n = 27) and control group (n = 3). The ZJTSD-dosed group was given the ZJTSD solution by gavage (i.g.) at a dosage of 1 mL/100 g body weight of rats, and the control group was given 0.9% normal saline at the same dose, twice a day for a week. After the last administration, the blood was collected from the hepatic portal vein at 15 min, 30 min, 1 h, 2 h, 4 h, 6 h, 8 h, 12 h, and 24 h, and 3 rats were taken at each time point.
The blood samples of rats were centrifuged at 4,000 rpm for 10 min to obtain the serum. The serum sample (1 mL) was processed with a 3-fold volume using methanol for protein precipitation, with epicoprostanol serving as the internal standard (digoxin and clarithromycin). After vortexing for 3 min, the mixture was centrifuged at 18,000 rpm for 10 min. Subsequently, the supernatant was evaporated at 45°C using a vacuum concentrator. After evaporating the solvent, 150 μL of methanol/water (1:1, v/v) was added, vortexed, sonicated, and then centrifuged at 18,000 rpm for 10 min at 4°C. The resulting supernatant was used for further analysis.
Liquid chromatographic separation was performed using an AB SCIEX LC™ 2.0 system (AB SCIEX, United States) fitted with an Acquity UPLC BEH C18 column (100 mm × 2.1 mm, 1.7 μm; Ireland). The mobile phases in negative and positive ion modes consisted of 0.1% FA aqueous solution (A) and acetonitrile containing 0.1% FA (B). The program of the elution gradient was set as follows: 0∼5 min, 2%∼35 %B; 5∼7 min, 35%∼50%; 7∼10 min, 50%∼70%; 10∼15 min, 70%∼90 %B; 15∼18 min, 90%∼90 %B; 18∼18.5 min, 90%∼2 %B; and 18.5∼20 min, 2%∼2 %B. The injection volume was 3 µL. The flow rate and the column temperature were set at 0.3 mL/min and 40°C, respectively.
The mass spectrometry analysis was performed on a SCIEX ZenoTOF™ 7600 system (AB SCIEX, United States), which was calibrated in the high-sensitivity mode for every 10 samples. Spectra were acquired in the TOF/MS-IDA-TOF MS/MS mode with the ESI source operating in positive and negative ion modes. MS parameters were set as follows: ionization source, ESI; spray voltage, 5,500 kV/–4,500 kV; collision energy, 40 V/–40 V; declustering potential, 80 V/–80 V; ion source temperature, 550°C; and scan range, 100–1250 m/z. Data acquisition and processing were performed using SCIEX OS 2.2 and PeakView 2.2.
A semi-quantitative method was adopted based on the correction peak area versus time ([Wang et al., 2011]; [Lin et al., 2019]). The mean serum time-course profile of pharmacokinetics based on the peak area ratio versus time was plotted using Origin 2018. The kinetic analysis of the peak area ratio (×1,000)–time curve was calculated using Phoenix WinNonlin 8.1 (Phoenix, American) software and illustrated.

[2] = design: AUC(0→t) / Cmax: unit not given beside the values; settings: rat, in vivo
[3] = male, Sprague-Dawley, rat, serum (hepatic portal vein blood), po, 1 mL/100 g body weight
[4] = male, Sprague-Dawley, rat, serum (hepatic portal vein blood), po, 1 mL/100 g body weight, t1/2, prototype compounds of ZJTSD absorbed into rat serum, mean±SD, n=3
[5] = male, Sprague-Dawley, rat, serum (hepatic portal vein blood), po, 1 mL/100 g body weight, elimination half-life (t1/2), rat hepatic portal vein serum after oral ZJTSD, semi-quantitative peak area ratio
[6] = male, Sprague-Dawley, rat, serum (hepatic portal vein blood), po, 1 mL/100 g body weight, t1/2, metabolites of ZJTSD in rat serum, mean±SD, n=3
[7] = metabolites of ZJTSD in rat serum, mean±SD, n=3, in h
[8] = prototype compounds of ZJTSD absorbed into rat serum, mean±SD, n=3, in h

## C=Cc1ccc(O)c(OC)c1 [P42, 4-Vinyl-2-methoxyphenol]
[1]; [3]
  MRT last: 10.2 ± 0.64 h
  Tmax: 10.7 ± 2.31 h

## Cc1ccc2c(c1)C(=O)c1cc(OS(=O)(=O)O)ccc1C2=O [M26]
[2]; po
  AUC (in words): greater
  Tmax: ≤ 3.5 h
  elimination half-life (t1/2): less than 4 h
  pharmacokinetic behavior compared with other prototype compounds and metabolites (in words): better pharmacokinetic behavior

## Cc1cc(O)cc2oc(CC(C)O)cc(=O)c12 (stereo not shown) [P2, 7-Hydroxy-2-(2-hydroxypropyl)-5-methylchromen-4-one]
[1]; [3]
  MRT last: 3.45 ± 0.58 h
  Tmax: 0.67 ± 0.29 h
[1]; [4]
  half-life: 2.17 ± 0.12 h
[1]; rat serum after oral ZJTSD
  level of exposure in the blood (in words): higher level of exposure
  pharmacokinetic behavior compared with other prototype compounds and metabolites (in words): better pharmacokinetic behavior

## CC(CO)C1=C(O)c2ccc3c(c2C(=O)C1=O)CCCC3(C)C (stereo not shown) [P31, Tanshinone V]
[2]
  AUC(0→t): 269.12±44.99
  Cmax: 44.36±4.60
  MRT(0→t): 5.85±0.84
  Tmax: 5.33±2.31
  t1/2: 7.21

## Cc1cc(O)c2c(c1)C(=O)c1cc(O)ccc1C2=O [M61]
[2]; po
  AUC (in words): greater

## COc1cc(C)c2c(=O)cc(C)oc2c1 [P6, 2,5-Dimethyl-7-methoxychromone]
[1]; [3]
  MRT last: 12.1 ± 0.02 h
  Tmax: 4.75 ± 4.02 h

## O=c1ccc2cc(O)c(O)cc2o1 [P39, Esculetin]
[1]; [3]
  MRT last: 4.92 ± 0.8 h
  Tmax: 0.33 ± 0.14 h
[1]; [4]
  half-life: 4.4 ± 3.9 h

## O=Cc1c[nH]c2ccccc12 [P46, Indole-3-carbaldehyde]
[1]; [3]
  MRT last: 12.7 ± 0.3 h
  Tmax: 12.1 ± 11.9 h

## CCCCCCCCCCCCCCCCCC(=O)OC[C@@H](O)COP(=O)([O-])OCC[N+](C)(C)C [P45, 1-O-Octadecanoyl-sn-glycero-3-phosphocholine]
[1]; [3]
  MRT: 9.91 h
  MRT last: 9.91 ± 0.56 h
  Tmax: 2 h
[1]; [5]
  half-life: 21 h
[1]; [4]
  half-life: 21.9 ± 6.81 h
[1]; rat serum after oral ZJTSD
  pharmacokinetic behavior compared with other prototype compounds and metabolites (in words): better pharmacokinetic behavior

## O=C1c2ccccc2C(=O)c2cc(CO)c(O)cc21 [P15, 2-Hydroxy-3-hydroxymethylanthraquinone]
[1]; [3]
  MRT last: 4.81 ± 0.31 h
  Tmax: 1.67 ± 2.02 h

## CC1CCC2(C(=O)O)CCC3(C)C(=CCC4C5(C=O)CC(O)C(O)C(C)(C)C5CCC43C)C2C1(C)O (stereo not shown) [M77]
[1]; [6]
  half-life: 10.8 ± 4.71 h

## COc1c(O)ccc2c1C(=O)c1ccccc1C2=O [P14, 2-Hydroxy-1-methoxyanthraquinone]
[1]; [3]
  MRT last: 4.24 ± 0.57 h
  Tmax: 0.67 ± 0.29 h
[1]; [4]
  half-life: 3.5 ± 2.06 h
[1]; rat serum after oral ZJTSD
  level of exposure in the blood (in words): higher level of exposure
  pharmacokinetic behavior compared with other prototype compounds and metabolites (in words): better pharmacokinetic behavior

## O=C(O)[C@@H]1CCCN1 [P26, Proline]
[1]; [3]
  MRT last: 11.1 ± 0.44 h
  Tmax: 0.5 h
[1]; [4]
  half-life: 47.1 ± 35.8 h

## COc1cc(-c2coc3cc(O)ccc3c2=O)ccc1O [P10, 7,4'-Dihydroxy-3'-methoxyisoflavone]
[1]; [3]
  MRT last: 10.8 ± 0.72 h
  Tmax: 2.08 ± 1.88 h
[1]; [4]
  half-life: 67.3 ± 4.4 h

## C[N+](C)(C)CC(=O)O [P35, Betaine]
[1]; [3]
  MRT last: 10.8 ± 0.64 h
  Tmax: 6.67 ± 4.62 h
[1]; [4]
  half-life: 24.2 ± 14.5 h

## O=C(O)/C=C/c1ccccc1 [P36, Cinnamic acid]
[1]; [3]
  MRT last: 5.15 ± 0.25 h
  Tmax: 1.58 ± 2.1 h
[1]; [4]
  half-life: 25.8 ± 26.4 h

## N[C@@H](Cc1c[nH]c2ccccc12)C(=O)O [P23, Tryptophan]
[1]; [3]
  MRT last: 12.4 ± 0.14 h
  Tmax: 1.08 ± 0.88 h

## Cc1cc(O)c2c(c1)C(=O)c1ccccc1C2=O [M63]
[1]; [6]
  half-life: 5.43 ± 2.61 h

## O=C(O)C=Cc1ccc(O)cc1 [P37, p-Coumaric acid]
[1]; [3]
  MRT last: 3.97 ± 0.59 h
  Tmax: 1.58 ± 2.1 h
[1]; [4]
  half-life: 3.23 ± 0.95 h
[1]; rat serum after oral ZJTSD
  level of exposure in the blood (in words): higher level of exposure
  pharmacokinetic behavior compared with other prototype compounds and metabolites (in words): better pharmacokinetic behavior

## C[N+](C)(C)CCOP(=O)([O-])OCC(O)COCCCCCCCCCCCCCCC=O (stereo not shown) [M99]
[2]; po
  Tmax: ≤ 3.5 h
  elimination half-life (t1/2): > 7.5 h
  pharmacokinetic behavior compared with other prototype compounds and metabolites (in words): better pharmacokinetic behavior

## O=C(CCc1ccc(O)cc1)c1ccc(O)cc1O [M11]
[1]; [6]
  half-life: 7.01 ± 2.29 h

## CC(=O)Cc1cc(O)cc2oc(C)cc(=O)c12 [P5, 2-Methyl-5-acetonyl-7-hydroxychromone]
[1]; [3]
  MRT last: 4.23 ± 0.55 h
  Tmax: 0.67 ± 0.29 h
[1]; [4]
  half-life: 3.09 ± 0.19 h

## N[C@@H](Cc1c[nH]cn1)C(=O)O [P24, Histidine]
[1]; [3]
  MRT last: 9.9 ± 0.35 h
  Tmax: 2.75 ± 2.95 h
[1]; [4]
  half-life: 21.1 ± 10.2 h

## O=C1c2cccc(O)c2C(=O)c2c(O)cc(CO)cc21 [P17, Aloe-emodin]
[1]; [3]
  MRT last: 5.2 ± 3.03 h
  Tmax: 4.17 ± 3.75 h
[1]; [4]
  half-life: 1.73 h
[1]; rat serum after oral ZJTSD
  detection in serum / absorbed form: absorbed as prototype compounds

## CC(=O)/C=C/c1ccc(CO)o1 [P51, (E)-4-[5-(Hydroxymethyl)-2-furanyl]-3-butene-2-one]
[1]; [3]
  MRT last: 4.2 ± 0.25 h
  Tmax: 4.67 ± 1.16 h

## COc1c(O)c(C)cc2c1C(=O)c1ccc(O)cc1C2=O [P21, 2,6-Dihydroxy-1-methoxy-3-methylanthraquinone]
[1]; [3]
  MRT last: 4.27 ± 0.55 h
  Tmax: 2.5 ± 3.04 h
[1]; [4]
  half-life: 3.45 ± 1.44 h

## COc1c(-c2ccccc2)oc2cc(O)cc(O)c2c1=O [P3, 3-Methoxy-5,7-dihydroxyflavone]
[1]; [3]
  MRT last: 4.8 ± 0.38 h
  Tmax: 1.83 ± 1.89 h
[1]; [4]
  half-life: 4.04 ± 1.91 h

## COC(=O)c1ccc(O)cc1 [M89]
[1]; [7]
  MRT(0→t): 5.35±0.92
  Tmax: 3.00±1.73

## O=C1c2ccccc2C(=O)c2ccccc21 [M52]
[2]; po
  AUC (in words): greater
  Cmax / peak concentration (in words): higher peak concentrations
  Tmax: > 4 h
  pharmacokinetic behavior compared with other prototype compounds and metabolites (in words): better pharmacokinetic behavior

## COc1ccc2c(c1OC)O[C@H]1c3ccc(O)cc3OC[C@@H]21 [P8, Methylnissolin]
[2]
  AUC(0→t): 3.73±0.45
  Cmax: 0.77±0.18
  MRT(0→t): 6.10±1.53
  Tmax: 0.42±0.14
  t1/2: 4.16±2.01

## COc1cccc2c1C(=O)c1c(O)cc(C)cc1C2=O [P20, 8-Methyl chrysophanol]
[2]
  AUC(0→t): 49952.22±8257.37
  Cmax: 15105.85±4254.91
  MRT(0→t): 4.30±0.34
  Tmax: 0.67±0.29
  t1/2: 3.38±0.96
[2]; po
  level of exposure in the blood (in words): higher level of exposure
  pharmacokinetic behavior compared with other prototype compounds and metabolites (in words): better pharmacokinetic behavior

## Cc1cc(=O)c2c(C)cc(O)cc2o1 [P1, 2,5-Dimethyl-7-hydroxychromone]
[1]; [3]
  MRT last: 3.43 ± 0.76 h
  Tmax: 0.67 ± 0.29 h
[1]; [4]
  half-life: 2.7 ± 0.14 h
[1]; rat serum after oral ZJTSD
  level of exposure in the blood (in words): higher level of exposure
  pharmacokinetic behavior compared with other prototype compounds and metabolites (in words): better pharmacokinetic behavior

## O=C1C[C@@H](c2ccc(O[C@@H]3O[C@H](CO)[C@@H](O)[C@H](O)[C@H]3O)cc2)Oc2cc(O)ccc21 [liquiritin]
[2]; po
  detection in serum / absorbed form: not detected in the serum

## O=C1CCCn2c(CO)ccc21 [P34, Polygonatine A]
[1]; [8]
  MRT(0→t): 3.96±0.32
  t1/2: 3.76±1.03

## O=C1CCCCN1 [P47, 2-Piperidone]
[1]; [3]
  MRT last: 11.8 ± 0.21 h
  Tmax: 12 h

## O=CCC(O)(CC(=O)O)C(=O)O (stereo not shown) [M90]
[1]; [7]
  MRT(0→t): 7.25±1.46
  Tmax: 1.08±0.88
  t1/2: 7.50±1.85
[1]; rat hepatic portal vein serum after oral ZJTSD twice a day for a week, semi-quantitative peak area ratio
  Tmax: ≤ 3.5 h
[1]; rat hepatic portal vein serum after oral ZJTSD, semi-quantitative peak area ratio
  elimination half-life (t1/2): > 7.5 h
[1]; rat serum after oral ZJTSD
  time to peak (in words): faster time to peak
  pharmacokinetic behavior compared with other prototype compounds and metabolites (in words): better pharmacokinetic behavior
  AUC (in words): greater

## Cc1cc(=O)c2c(CC(=O)O)cc(O)cc2o1 [P4, 2-Methyl-5-carboxymethyl-7-hydroxychromone]
[1]; [3]
  MRT last: 5.29 ± 0.3 h
  Tmax: 1.67 ± 2.02 h
[1]; [4]
  half-life: 3.14 ± 0.86 h

## O=C(O)CC(O)(CC(=O)O)C(=O)O [P40, Citric acid]
[1]; [3]
  MRT: 9.56 h
  MRT last: 9.56 ± 1.76 h
  Tmax: 3.33 ± 1.16 h
[1]; [5]
  half-life: 21 h
[1]; [4]
  half-life: 24.7 ± 23.6 h
[1]; rat serum after oral ZJTSD
  AUC (in words): largest

## COC(=O)C1CCC(=O)N1 (stereo not shown) [P33, 5-Oxo-pyrrolidine-2-carboxylic acid methyl ester]
[1]; [3]
  MRT last: 13.9 ± 1.35 h
  Tmax: 14 ± 9.17 h

## COc1cc2ccc(=O)oc2cc1O [P38, Scopoletin]
[1]; [3]
  MRT last: 4.36 ± 1.52 h
  Tmax: 0.5 h
[1]; [4]
  half-life: 4.77 ± 1.43 h

## CSCC[C@H](N)C(=O)O [P25, L-Methionine]
[1]; [3]
  MRT last: 12.5 ± 1.36 h
  Tmax: 2.17 ± 3.32 h

## CCCCCCCCCCCCCCCCOC[C@@H](O)COP(=O)([O-])OCC[N+](C)(C)C [P44, 1-O-Hexadecyl-sn-glycero-3-phosphocholine]
[1]; [3]
  MRT last: 11.9 ± 0.91 h
  Tmax: 0.58 ± 0.38 h
[1]; [4]
  half-life: 33.1 ± 13.3 h

## O=C(O)c1ccc(O)cc1 [P41, p-Hydroxybenzoic acid]
[1]; [3]
  MRT last: 9.15 ± 0.95 h
  Tmax: 2.75 ± 2.17 h
[1]; [4]
  half-life: 19.4 ± 2.9 h
[1]; rat serum after oral ZJTSD
  pharmacokinetic behavior compared with other prototype compounds and metabolites (in words): better pharmacokinetic behavior

## OC1COCC1O (stereo not shown) [M87]
[1]; [7]
  MRT(0→t): 9.59±1.35
  Tmax: 1.17±0.76
  t1/2: 17.68±16.89

## Cc1cc2c(cc1O)C(=O)c1ccccc1C2=O [P11, 2-Methyl-3-hydroxyanthraquinone]
[1]; [3]
  MRT last: 3.23 ± 0.59 h
  Tmax: 0.67 ± 0.29 h
[1]; [4]
  half-life: 4.29 ± 2.71 h
[1]; rat serum after oral ZJTSD
  level of exposure in the blood (in words): higher level of exposure
  pharmacokinetic behavior compared with other prototype compounds and metabolites (in words): better pharmacokinetic behavior

## O=C(O)/C=C/c1ccc(O)cc1 [M91]
[1]; [7]
  MRT(0→t): 3.97±0.59
  Tmax: 1.58±2.10
  t1/2: 3.23±0.95

## O=C(O)c1cc(O)c2c(c1)C(=O)c1cccc(O)c1C2=O [P18, Rhein]
[1]; [3]
  MRT last: 3.55 ± 0.57 h
  Tmax: 1.67 ± 2.02 h
[1]; [4]
  half-life: 4.7 ± 0.9 h
[1]; rat serum after oral ZJTSD
  detection in serum / absorbed form: absorbed as prototype compounds
